Laboratory results published in BigSolDB 2.1.

CC(C)COc1cccc(B(O)O)c1
Conditions	solubility (mole fraction)
in 3-pentanone, 303.65 K	0.191
in 3-pentanone, 307.15 K	0.204
in 3-pentanone, 314.15 K	0.233
in 3-pentanone, 318.75 K	0.258
in 3-pentanone, 335.65 K	0.289
in 3-pentanone, 339.15 K	0.329
in 3-pentanone, 343.15 K	0.354
in 3-pentanone, 348.15 K	0.396
in 3-pentanone, 351.15 K	0.443
in 3-pentanone, 353.65 K	0.488
in chloroform, 297.15 K	0.018
in chloroform, 302.65 K	0.0229
in chloroform, 306.65 K	0.0278
in chloroform, 310.25 K	0.0327
in chloroform, 313.95 K	0.0408
in chloroform, 318.35 K	0.0507
in chloroform, 323.05 K	0.067
in chloroform, 328.55 K	0.0899
in chloroform, 331.75 K	0.131
in chloroform, 333.25 K	0.19
in dipropyl ether, 298.65 K	0.103
in dipropyl ether, 302.95 K	0.116
in dipropyl ether, 305.15 K	0.126
in dipropyl ether, 308.45 K	0.137
in dipropyl ether, 312.15 K	0.155
in dipropyl ether, 314.65 K	0.172
in dipropyl ether, 319.75 K	0.198
in dipropyl ether, 323.45 K	0.232
in dipropyl ether, 329.95 K	0.275
in dipropyl ether, 333.95 K	0.34
in methylcyclohexane, 305.95 K	0.0033
in methylcyclohexane, 308.45 K	0.0049
in methylcyclohexane, 309.95 K	0.0065
in methylcyclohexane, 315.75 K	0.0082
in methylcyclohexane, 318.65 K	0.0147
in methylcyclohexane, 322.65 K	0.0343
in methylcyclohexane, 325.25 K	0.0556
in methylcyclohexane, 327.05 K	0.0817
in methylcyclohexane, 329.65 K	0.132
in methylcyclohexane, 331.75 K	0.154

CC(C)COc1ccccc1B(O)O
Conditions	solubility (mole fraction)
in 3-pentanone, 295.65 K	0.301
in 3-pentanone, 296.55 K	0.288
in 3-pentanone, 297.65 K	0.304
in 3-pentanone, 298.55 K	0.324
in 3-pentanone, 300.65 K	0.306
in 3-pentanone, 300.85 K	0.322
in 3-pentanone, 302.55 K	0.322
in 3-pentanone, 303.05 K	0.338
in 3-pentanone, 305.35 K	0.356
in 3-pentanone, 306.05 K	0.342
in 3-pentanone, 308.35 K	0.362
in 3-pentanone, 309.05 K	0.378
in 3-pentanone, 312.05 K	0.376
in 3-pentanone, 312.25 K	0.396
in 3-pentanone, 313.85 K	0.426
in 3-pentanone, 318.15 K	0.407
in 3-pentanone, 318.85 K	0.444
in 3-pentanone, 319.15 K	0.478
in 3-pentanone, 319.55 K	0.455
in 3-pentanone, 322.55 K	0.482
in 3-pentanone, 324.85 K	0.503
in 3-pentanone, 325.55 K	0.526
in 3-pentanone, 328.85 K	0.547
in 3-pentanone, 331.25 K	0.609
in 3-pentanone, 337.25 K	0.67
in 3-pentanone, 345.35 K	0.766
in acetone, 293.65 K	0.281
in acetone, 300.35 K	0.314
in acetone, 303.65 K	0.339
in acetone, 309.35 K	0.372
in acetone, 315.65 K	0.411
in acetone, 320.75 K	0.467
in acetone, 327.35 K	0.533
in acetone, 333.95 K	0.611
in acetone, 337.75 K	0.639
in acetone, 341.35 K	0.695
in acetone, 344.45 K	0.737
in acetone, 347.75 K	0.8
in acetone, 350.55 K	0.823
in acetone, 353.65 K	0.872
in acetone, 355.75 K	0.901
in chloroform, 295.15 K	0.277
in chloroform, 299.15 K	0.307
in chloroform, 304.45 K	0.338
in chloroform, 308.15 K	0.361
in chloroform, 313.15 K	0.402
in chloroform, 317.65 K	0.432
in chloroform, 320.65 K	0.465
in chloroform, 325.75 K	0.514
in chloroform, 328.65 K	0.547
in chloroform, 335.05 K	0.618
in chloroform, 336.15 K	0.637
in chloroform, 341.15 K	0.7
in chloroform, 344.75 K	0.715
in chloroform, 348.45 K	0.774
in chloroform, 350.25 K	0.822
in chloroform, 352.15 K	0.866
in chloroform, 355.15 K	0.895
in dipropyl ether, 294.15 K	0.157
in dipropyl ether, 300.35 K	0.185
in dipropyl ether, 304.35 K	0.209
in dipropyl ether, 311.05 K	0.259
in dipropyl ether, 316.45 K	0.305
in dipropyl ether, 320.15 K	0.345
in dipropyl ether, 325.05 K	0.405
in dipropyl ether, 329.15 K	0.446
in dipropyl ether, 330.15 K	0.463
in dipropyl ether, 332.15 K	0.499
in dipropyl ether, 335.05 K	0.532
in dipropyl ether, 338.65 K	0.606
in dipropyl ether, 340.75 K	0.641
in dipropyl ether, 345.65 K	0.73
in dipropyl ether, 348.75 K	0.764
in dipropyl ether, 351.65 K	0.813
in dipropyl ether, 353.05 K	0.857
in methylcyclohexane, 300.05 K	0.0138
in methylcyclohexane, 305.15 K	0.0169
in methylcyclohexane, 305.85 K	0.0208
in methylcyclohexane, 309.15 K	0.0262
in methylcyclohexane, 312.25 K	0.0333
in methylcyclohexane, 315.55 K	0.046
in methylcyclohexane, 318.15 K	0.0589
in methylcyclohexane, 321.95 K	0.0885
in methylcyclohexane, 323.35 K	0.103
in methylcyclohexane, 324.35 K	0.118
in methylcyclohexane, 325.95 K	0.139
in methylcyclohexane, 327.05 K	0.163
in methylcyclohexane, 329.05 K	0.198
in methylcyclohexane, 331.25 K	0.21
in methylcyclohexane, 331.85 K	0.236
in methylcyclohexane, 332.95 K	0.253
in methylcyclohexane, 334.95 K	0.328
in methylcyclohexane, 336.05 K	0.354
in methylcyclohexane, 336.95 K	0.371
in methylcyclohexane, 340.05 K	0.479
in methylcyclohexane, 343.75 K	0.567
in methylcyclohexane, 344.45 K	0.628
in methylcyclohexane, 349.15 K	0.731

CC(C)COc1ccc(B(O)O)cc1
Conditions	solubility (mole fraction)
in 3-pentanone, 294.65 K	0.114
in 3-pentanone, 298.65 K	0.128
in 3-pentanone, 303.75 K	0.146
in 3-pentanone, 307.25 K	0.172
in 3-pentanone, 309.35 K	0.187
in 3-pentanone, 313.65 K	0.205
in 3-pentanone, 317.65 K	0.232
in 3-pentanone, 325.55 K	0.265
in 3-pentanone, 331.35 K	0.31
in 3-pentanone, 334.65 K	0.335
in 3-pentanone, 339.65 K	0.367
in 3-pentanone, 349.65 K	0.411
in acetone, 294.45 K	0.127
in acetone, 296.85 K	0.132
in acetone, 299.75 K	0.139
in acetone, 304.75 K	0.149
in acetone, 309.45 K	0.16
in acetone, 312.25 K	0.171
in acetone, 318.75 K	0.19
in acetone, 322.55 K	0.204
in acetone, 325.35 K	0.218
in chloroform, 296.25 K	0.0212
in chloroform, 299.95 K	0.0253
in chloroform, 303.65 K	0.0304
in chloroform, 308.65 K	0.0367
in chloroform, 309.65 K	0.0415
in chloroform, 310.85 K	0.0471
in chloroform, 312.65 K	0.0555
in chloroform, 316.35 K	0.0668
in chloroform, 319.65 K	0.0785
in chloroform, 322.35 K	0.0936
in chloroform, 328.75 K	0.115
in chloroform, 334.25 K	0.146
in chloroform, 338.65 K	0.202
in chloroform, 338.75 K	0.183
in chloroform, 343.15 K	0.254
in chloroform, 346.65 K	0.279
in chloroform, 352.65 K	0.324
in chloroform, 353.85 K	0.335
in dipropyl ether, 296.65 K	0.0352
in dipropyl ether, 303.15 K	0.0416
in dipropyl ether, 308.15 K	0.0497
in dipropyl ether, 308.45 K	0.0587
in dipropyl ether, 312.65 K	0.0705
in dipropyl ether, 315.65 K	0.082
in dipropyl ether, 320.15 K	0.0995
in dipropyl ether, 325.55 K	0.128
in dipropyl ether, 330.05 K	0.165
in dipropyl ether, 333.15 K	0.196
in dipropyl ether, 336.65 K	0.229
in dipropyl ether, 339.45 K	0.261
in dipropyl ether, 344.15 K	0.314
in dipropyl ether, 348.65 K	0.345
in methylcyclohexane, 318.55 K	0.0096
in methylcyclohexane, 323.65 K	0.0191
in methylcyclohexane, 328.45 K	0.03
in methylcyclohexane, 334.75 K	0.0514
in methylcyclohexane, 343.55 K	0.118
in methylcyclohexane, 344.65 K	0.204
in methylcyclohexane, 345.55 K	0.266
in methylcyclohexane, 350.95 K	0.322
